Test results as given in patent publication US20030003139A1 (Schering AG, priority 2000, published 2003).

Key:
[1] = in-vitro-diffusion test, Franz-flow cell, transdermal in-vitro skin flow from patches; format: in vitro ADME, mice; details: for transdermal in-vitro skin flow / transdermal in-vitro skin flow, MW (mean value): gestodene patch 1% by weight; for transdermal in-vitro skin flow, MW (mean value): mean of cells
Text: The measurements were made with the following in-vitro-diffusion test. A tempered Franz-flow cell is divided into a donor compartment and an acceptor compartment by a 2 cm^2 piece of excised skin from nude mice, whereby the horny layer faces toward the donor. A 3% or 5% solution of hydroxypropyl-β-cyclodextrin in buffer is pumped with the aid of a pneumatic pump from a tempered storage container through the acceptor compartment and collected with the aid of a fraction collector in glass vials that are exchanged at specific time intervals.
The active ingredient-containing patches are bonded to the donor side.
The content of active ingredients is determined in the individual fractions by means of HPLC/UV or GC/FID.
The transdermal in-vitro skin flow is indicated in ng/cm^2/h: […]

[2] = solubility (crystal-free loadability) of the active ingredient in polyacrylate matrix-TDS according to Example 1; format: physicochemical; details: for content up to which active ingredient is present in dissolved form in matrix-TDS: matrix-TDS according to Example 1
Description: Hydroxytrienedione is weighed in a beaker and with 25 g of a 30% solution of Kollidon^(R) VA 64 in 2-propanol. 10 ml of 2-propanol is added. The mixture that is obtained is stirred for 5 minutes. The mixture is fed into the adhesive solution (Gelva 7881) that is introduced. The following table indicates the adhesive dry mass that is contained in the introduced volume of the adhesive solution. Then, it is stirred for another 0.5 hour. After polarization-microscopic checking to ensure the absence of crystals, the mixture that is obtained is coated by means of a 300 μm doctor blade on a liner that consists of fluoropolymer-coated polyester (Scotchpak^(R) 1022 Release Liner). It is dried for 20 minutes at 70° C. and then laminated with a backing that consists of a co-laminate of PVC-PVDS with polyester (Saran-Hytrel^(R) backing). Round patches with a surface area of 10 cm^2 are punched from the three-layer laminate that is obtained and welded into a sealed bag that is made of aluminum compound foil.
A matrix-TDS, in which the active ingredient is present in dissolved form, can be produced according to Example 1 with gestodene only up to about 1% (m/m). Moreover, it results in recrystallization phenomena of the gestodene. The skin flow cannot increase decisively.

[3] = formulations for transdermal systems; cited from earlier work

C#C[C@]1(O)C=C[C@H]2[C@@H]3CCC4=CC(=O)CC[C@@H]4[C@H]3CC[C@@]21CC [gestodene]
transdermal in-vitro skin flow ([1]; 1 h, diffusion cell 1): 0 ng/cm^2/h | transdermal in-vitro skin flow ([1]; 1 h, diffusion cell 2): 0 ng/cm^2/h | transdermal in-vitro skin flow ([1]; 1 h, diffusion cell 3): 0 ng/cm^2/h | transdermal in-vitro skin flow ([1]; 1 h, diffusion cell 4): 0 ng/cm^2/h | transdermal in-vitro skin flow, MW (mean value) ([1]; 1 h): 0 ng/cm^2/h | transdermal in-vitro skin flow ([1]; 3 h, diffusion cell 1): 1 ng/cm^2/h | transdermal in-vitro skin flow ([1]; 3 h, diffusion cell 2): 4 ng/cm^2/h | transdermal in-vitro skin flow ([1]; 3 h, diffusion cell 3): 2 ng/cm^2/h | transdermal in-vitro skin flow ([1]; 3 h, diffusion cell 4): 5 ng/cm^2/h | transdermal in-vitro skin flow, MW (mean value) ([1]; 3 h): 3 ng/cm^2/h | transdermal in-vitro skin flow ([1]; 5 h, diffusion cell 1): 5 ng/cm^2/h | transdermal in-vitro skin flow ([1]; 5 h, diffusion cell 2): 31 ng/cm^2/h | transdermal in-vitro skin flow ([1]; 5 h, diffusion cell 3): 14 ng/cm^2/h | transdermal in-vitro skin flow ([1]; 5 h, diffusion cell 4): 18 ng/cm^2/h | transdermal in-vitro skin flow, MW (mean value) ([1]; 5 h): 17 ng/cm^2/h | transdermal in-vitro skin flow ([1]; 10 h, diffusion cell 1): 39 ng/cm^2/h | transdermal in-vitro skin flow ([1]; 10 h, diffusion cell 2): 72 ng/cm^2/h | transdermal in-vitro skin flow ([1]; 10 h, diffusion cell 3): 80 ng/cm^2/h | transdermal in-vitro skin flow ([1]; 10 h, diffusion cell 4): 58 ng/cm^2/h | transdermal in-vitro skin flow, MW (mean value) ([1]; 10 h): 62 ng/cm^2/h | transdermal in-vitro skin flow ([1]; 18 h, diffusion cell 1): 77 ng/cm^2/h | transdermal in-vitro skin flow ([1]; 18 h, diffusion cell 2): 46 ng/cm^2/h | transdermal in-vitro skin flow ([1]; 18 h, diffusion cell 3): 110 ng/cm^2/h | transdermal in-vitro skin flow ([1]; 18 h, diffusion cell 4): 36 ng/cm^2/h | transdermal in-vitro skin flow, MW (mean value) ([1]; 18 h): 67 ng/cm^2/h | transdermal in-vitro skin flow ([1]; 26 h, diffusion cell 1): 120 ng/cm^2/h | transdermal in-vitro skin flow ([1]; 26 h, diffusion cell 2): 45 ng/cm^2/h | transdermal in-vitro skin flow ([1]; 26 h, diffusion cell 3): 111 ng/cm^2/h | transdermal in-vitro skin flow ([1]; 26 h, diffusion cell 4): 33 ng/cm^2/h | transdermal in-vitro skin flow, MW (mean value) ([1]; 26 h): 77 ng/cm^2/h | transdermal in-vitro skin flow ([1]; 34 h, diffusion cell 1): 50 ng/cm^2/h | transdermal in-vitro skin flow ([1]; 34 h, diffusion cell 2): 39 ng/cm^2/h | transdermal in-vitro skin flow ([1]; 34 h, diffusion cell 3): 83 ng/cm^2/h | transdermal in-vitro skin flow ([1]; 34 h, diffusion cell 4): 31 ng/cm^2/h | transdermal in-vitro skin flow, MW (mean value) ([1]; 34 h): 51 ng/cm^2/h | transdermal in-vitro skin flow ([1]; 42 h, diffusion cell 1): 47 ng/cm^2/h | transdermal in-vitro skin flow ([1]; 42 h, diffusion cell 2): 33 ng/cm^2/h | transdermal in-vitro skin flow ([1]; 42 h, diffusion cell 3): 74 ng/cm^2/h | transdermal in-vitro skin flow ([1]; 42 h, diffusion cell 4): 25 ng/cm^2/h | transdermal in-vitro skin flow, MW (mean value) ([1]; 42 h): 45 ng/cm^2/h | transdermal in-vitro skin flow ([1]; 50 h, diffusion cell 1): 37 ng/cm^2/h | transdermal in-vitro skin flow ([1]; 50 h, diffusion cell 2): 27 ng/cm^2/h | transdermal in-vitro skin flow ([1]; 50 h, diffusion cell 3): 44 ng/cm^2/h | transdermal in-vitro skin flow ([1]; 50 h, diffusion cell 4): 22 ng/cm^2/h | transdermal in-vitro skin flow, MW (mean value) ([1]; 50 h): 32 ng/cm^2/h | content up to which active ingredient is present in dissolved form in matrix-TDS [2]: about 1 % (m/m) | solubility in the matrices used [3]: about 1%

C[C@H](O)C(=O)[C@]12C=C[C@@]3(CC1)C1CCC4=CC(=O)CCC4=C1CC[C@]23C (stereo partly drawn) [hydroxytrienedione, (21S)-21-hydroxy-21-methyl-14,17-ethano-19-norpregna-4,9,15-triene-3,20-dione]
skin flows for 1%-matrix-TDS, hydroxytrienedione versus gestodene ([1]; 1%-matrix-TDS): comparable | content up to which active ingredient is present in dissolved form in matrix-TDS [2]: about 20 % (m/m) | solubility in transdermal systems ([2]; matrix-transdermal systems based on polyacrylate adhesive): about 20 % by weight
